{
  "source": "patent US20150018369A1",
  "about": "(priority 2012, published 2015)",
  "key": {"T98 g cells": {"tested_on": "T98 g cells", "test": "Cell viability assay (WST-1), SAR of AI compounds at inducing cell death", "type": "cell-based, human", "conditions": "Homo sapiens, T98G, 72 h", "protocol": "Cells were plated media supplemented with 10% serum in 96-well plates (10^4 cells per wellI; 0.1 ml per well). Once they reached ˜70% confluence, they were rinsed with PBS and kept for an additional 24 his in media supplemented with 1% serum, at which time drugs or vehicle (DMSO, 0.1%, prepared in 10 μl serum-free media) were directly added to each well. After 3 days, cell viability was assessed using the Cell Proliferation Reagent WST-1 (Roche, Indianapolis, Ind.). Briefly, WST-1 reagent (10 μl) was added to each well for 3 hrs at 37° C. with 5% CO2 and WST-1 products were read at 450 nm using Packard SpectraCount™.\nBecause the strongest toxic effect of WIN55212-2 (ST-1) was measured in T98 g cells, these cells are used as readout to study the structure activity relationship (SAR) of AI compounds at inducing cell death. Table 2 provides the chemical structure, potency and efficacy of several AI compounds."}, "AI receptors [1]": {"tested_on": "AI receptors", "test": "GTPγS binding in HEK293 cell homogenates", "type": "biochemical, human", "description": "(§1) When comparing the overall amino acid sequence of GPR124 to that of CB1 and CB2 receptors no significant homology was found. However, when focusing the comparison to the amino acid sequence encoding for the third transmembrane domains of GPR124 and CB2 receptors, 84% homology was found (FIG. 5a). […] Therefore, it is likely that ST-1, ST-11, and other AI compounds interact directly with the third transmembrane domain of GPR124. To determine the signaling mechanism of AI receptors, effect of ST-11 in HEX293 cells, which express GPR124 endogenously and commonly used to study GPCR pharmacology and signaling pathway, was tested."}, "AI receptors [2]": {"tested_on": "AI receptors", "test": "cAMP production in HEK293 cells", "type": "cell-based, human", "description": "as §1"}, "[3]": {"tested_on": "AI receptors (mouse microglia in primary culture)", "test": "[3H]-WIN55212 binding in mouse microglia"}, "[4]": {"tested_on": "mouse microglia in primary culture", "test": "Cell viability in mouse microglia", "type": "cell-based"}, "[5]": {"test": "Accelerating rotarod, acute toxicity in healthy mice", "type": "in vivo, mouse", "protocol": "As an initial step to test the therapeutic efficacy of ST-11 in vivo, the pharmacokinetic profile and acme toxicity profile of ST-11 in healthy mice were determined. FIG. 13 illustrates an LC-MS chromatogram and calibration curve of ST-11 (a & 13). PK profile of ST-11 (c, d, e & f)."}, "DBT tumors": {"tested_on": "DBT tumors", "test": "DBT tumors implanted in BalbC mice", "type": "in vivo, mouse", "conditions": "treated daily over 2 weeks"}, "GPR124": {"target": "T1, GPR124 (Homo sapiens, UniProt Q96PE1)", "T1 construct": "endogenous in cells; host or cells: T98g human astrocytoma cells", "T1 sequence (Q96PE1 34-1338)": "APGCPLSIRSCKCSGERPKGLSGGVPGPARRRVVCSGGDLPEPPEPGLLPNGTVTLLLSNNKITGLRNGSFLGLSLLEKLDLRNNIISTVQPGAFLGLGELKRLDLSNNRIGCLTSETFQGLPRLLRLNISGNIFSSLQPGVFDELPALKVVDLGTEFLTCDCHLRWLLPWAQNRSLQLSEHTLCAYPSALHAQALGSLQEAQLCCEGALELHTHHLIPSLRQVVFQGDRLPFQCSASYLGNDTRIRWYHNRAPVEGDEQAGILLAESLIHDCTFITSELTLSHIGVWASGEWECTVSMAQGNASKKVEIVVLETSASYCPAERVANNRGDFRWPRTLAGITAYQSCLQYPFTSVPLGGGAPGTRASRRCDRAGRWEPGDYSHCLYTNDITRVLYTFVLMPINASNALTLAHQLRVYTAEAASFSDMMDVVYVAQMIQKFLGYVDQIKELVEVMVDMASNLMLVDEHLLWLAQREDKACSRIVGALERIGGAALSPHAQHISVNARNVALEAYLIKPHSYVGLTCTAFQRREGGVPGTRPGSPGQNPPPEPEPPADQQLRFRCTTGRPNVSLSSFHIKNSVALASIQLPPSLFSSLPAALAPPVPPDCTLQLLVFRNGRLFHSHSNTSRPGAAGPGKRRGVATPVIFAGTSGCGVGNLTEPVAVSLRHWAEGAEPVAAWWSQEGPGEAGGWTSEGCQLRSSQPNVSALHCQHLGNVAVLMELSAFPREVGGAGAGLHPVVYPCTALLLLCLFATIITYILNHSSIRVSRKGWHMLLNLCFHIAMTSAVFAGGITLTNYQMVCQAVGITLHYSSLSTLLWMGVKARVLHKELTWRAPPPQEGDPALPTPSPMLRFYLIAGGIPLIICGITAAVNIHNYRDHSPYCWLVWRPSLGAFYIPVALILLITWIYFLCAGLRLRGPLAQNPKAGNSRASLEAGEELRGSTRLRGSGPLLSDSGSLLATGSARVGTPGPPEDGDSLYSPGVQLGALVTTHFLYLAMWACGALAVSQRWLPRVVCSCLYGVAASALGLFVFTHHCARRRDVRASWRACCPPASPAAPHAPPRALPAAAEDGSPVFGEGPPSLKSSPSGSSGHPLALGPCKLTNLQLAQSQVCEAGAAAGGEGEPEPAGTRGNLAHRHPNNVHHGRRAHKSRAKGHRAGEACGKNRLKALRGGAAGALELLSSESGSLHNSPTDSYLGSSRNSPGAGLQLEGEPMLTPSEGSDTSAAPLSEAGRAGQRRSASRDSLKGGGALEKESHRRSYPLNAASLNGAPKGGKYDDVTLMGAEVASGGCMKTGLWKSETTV", "test": "ST-11 toxicity in T98 g cells after siRNA knock-down of GPR124", "type": "cell-based", "conditions": "ST-11 1 μM, siRNA targeting GPR124, viability after three days", "protocol": "To determine which of the gene candidate encodes for AI receptors, an siRNA approach is used to knock down each candidate individually to determine which one prevents the toxic effect of ST-11 and thus encodes for AI receptors. The prediction is that knocking down AI receptors prevents the cell death induced by ST-11. T98 g cells were treated with siRNA targeting each of the 39 GPCR gene candidates individually. The first experiment was designed to knock down each GPCR candidate liming a mixture of 3 siRNAs, and thus maximize genetic targeting efficacy. Thus, cells were incubated with siRNA mixtures and then treated with ST-11 (1 μM) and cell viability measured after three days. Only one mixture of siRNAs (that targeting GPR124) decreased the toxicity of ST-11. […] Two of the three siRNAs knocked-down GPR124 expression by more than 80% over 4 days (FIG. 5b). […] The killing effect induced by ST-11 is mediated by GPR124, an AI receptor."}, "CB2": {"target": "CB2 (Homo sapiens, UniProt P34972)", "sequence (P34972 whole entry)": "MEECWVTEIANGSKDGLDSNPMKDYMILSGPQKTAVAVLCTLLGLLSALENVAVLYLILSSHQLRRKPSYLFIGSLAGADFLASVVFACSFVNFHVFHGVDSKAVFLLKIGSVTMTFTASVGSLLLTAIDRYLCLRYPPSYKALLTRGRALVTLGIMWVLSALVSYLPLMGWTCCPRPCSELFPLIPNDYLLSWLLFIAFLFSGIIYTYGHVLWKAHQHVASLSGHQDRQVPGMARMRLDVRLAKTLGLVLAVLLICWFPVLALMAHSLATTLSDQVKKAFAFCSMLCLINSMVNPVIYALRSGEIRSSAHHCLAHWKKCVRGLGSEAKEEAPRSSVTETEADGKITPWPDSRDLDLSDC", "test": "HA-tagged receptor internalization, CB2", "type": "cell-based", "design": "HA; expressed in transfected cells", "conditions": "FIG. 2b", "description": "FIGS. 2d and 2e illustrate the co-docking of CP55940 and either WIN55212-2 (d) or ST-11 (e) in hCB1 receptors."}},
  "note": "pEC50: −log10 of the molar value.",
  "data": [
    {"compound": "CCn1c(C)c(C(=O)c2ccc(C)c3ccccc23)c2ccccc21", "note": "[ST-11]", "values": [
      {"measurement": "pEC50", "setting": "T98 g cells", "result": 5.89},
      {"measurement": "GTPγS binding", "setting": "AI receptors [1]", "result": "activation of GTP[…]S binding"},
      {"measurement": "cAMP production", "setting": "AI receptors [2]", "result": "inhibition of cAMP production"},
      {"measurement": "competition for [3H]-WIN55212 binding", "setting": "[3]", "result": "competed"},
      {"measurement": "cell viability in microglia", "setting": "[4]", "result": "does not"},
      {"measurement": "locomotor activity on an accelerating rotarod", "setting": "[5]", "result": "does not influence locomotor activity"},
      {"measurement": "number of lymphocytes in DBT tumors", "setting": "DBT tumors", "result": "increases the number of lymphocytes"},
      {"measurement": "number of microglia in DBT tumors", "setting": "DBT tumors", "result": "increases"},
      {"measurement": "ST-11-induced killing of T98 g cells when GPR124 mRNA expression is reduced", "setting": "GPR124", "result": "reduced"},
      {"measurement": "cross-activation of human CB2 receptors (receptor internalization)", "setting": "CB2", "result": "engage CB2 receptors"}
    ]}
  ]
}
